Experimental data taken from patent publication US4622342A, “Secondary amines” (priority 1981, dated 1986).
Where a name gives a salt, the structure may show the parent alone. Read-outs that look alike come from different tables or passages of the source.

Experiments:
[1] = tested on: blood glucose; experiment: Anti-hyperglycaemic activity (blood glucose after subcutaneous glucose in fasted mice); type: in vivo, Female CFLP mice; details: Mus musculus, read-out: Reduction in area under blood glucose curve
Experimental: Female CFLP mice, each weighing approximately 25 g were fasted for 24 hours prior to the study. The compounds under study were administered orally as an aqueous solution to each of 6 mice. 6 mice were given water as a control. 30 minutes later a blood sample (20 μl ) was obtained from the tail for the analysis of blood glucose. Immediately after taking this blood sample, glucose (1 g/kg body weight) was administered subcutaneously to each mouse. Blood samples were then obtained from each mouse at 30 minute intervals for 120 minutes.
Compounds that produced a significant (P<0.05) reduction of blood glucose, compared with control mice given water, at any time interval, were considered active. The area under the blood glucose curve over the 2 hour period after the adminstration of the glucose was calculated for each compound and compared with the value for control animals.

[2] = tested on: platelet aggregation; experiment: Platelet aggregation inhibition activity (collagen-induced fall in platelet count, oral dosing); type: in vivo, Male CFLP mice; details: collagen 400 μg/kg i.v. two hours later
Experimental: Male CFLP mice (ca 20 g, n=8) were dosed orally with compound or vehicle (controls) after an overnight fast. Two hours later each mouse received an intravenous dose of collagen (400 μg/kg, pH 6-6.6). Exactly 30 seconds after injection of collagen, each mouse was placed in a chamber of CO2 until respiration ceased. […] Each blood platelet count was expressed as a percent of that obtained in a tail blood sample taken immediately before injection of collagen.

[3] = tested on: Rat hearts; experiment: Cardiac activity, rat hearts perfused by the Langendorff procedure
Experimental: Rat hearts were perfused by the Langendorff procedure as follows:
Hearts were dissected free within 30 seconds of death and reverse perfused via the aorta and coronary vessels with Krebs-Ringer bicarbonate solution (pH 7.4, 37° C.) gassed with 95% oxygen:5% carbon dioxide at a flow rate between 8-12 cm^3 /minute. Responses were observed after injection of drug dissolved in isotonic saline into the perfusion media.
Results are expressed as a percentage of the maximum response due to salbutamol.

[4] = tested on: rat ear inflammation; experiment: Topical anti-inflammatory activity (croton oil rat ear inflammation); type: in vivo; details: 1.0 mg/rat ear; 6 hours; activity = significant (5% level) reduction in ear weight vs non-drug treated control
Experimental: The method used is based on that described by G. Tonelli et al (Endocrinology, 77, 625-634, 1965). An inflammation is induced in the rat ear by the application of 50 μl of a 1% solution of croton oil in tetrahydrofuran, test compounds being dissolved in the irritant vehicle. After 6 hours the inflammation is assessed by killing the animals and weighing the ears. Topical anti-inflammatory activity of a compound is generally considered to be shown when a significant (5% level) reduction in ear weight is seem compared to non-drug treated control.

[5] = dose 1 μ moles/kg po, 2 hour period after glucose 1 g/kg s.c.
[6] = 10 μg added to perfusate (salbutamol dose not given), read-out: Heart Rate (percentage of the maximum response due to salbutamol)
[7] = 10 μg added to perfusate (salbutamol dose not given), read-out: Heart Tension (percentage of the maximum response due to salbutamol)
[8] = read-out: Heart Rate (percentage of the maximum response due to salbutamol)
[9] = read-out: Heart Tension (percentage of the maximum response due to salbutamol)

Q: Which inhibition in vivo at 1 µmol/kg ([1]; po, 2 h) does the source give for `COc1ccc(C[C@@H](C)NC[C@H](O)c2cccc(Cl)c2)cc1F` (relative stereo) [Example 4, N-[2-(3-Fluoro-4-methoxyphenyl)-1-methylethyl]-2-hydroxy-2-(3-chlorophenyl)ethanamine hydrobromide-(RR,SS) diastereoisomer] here?
A: 42%

Q: `COc1ccc(C[C@@H](C)NC[C@H](O)c2cccc(Cl)c2)cc1` (relative stereo) [Example 6, N-[2-(4-Methoxyphenyl)-1-methylethyl]-2-hydroxy-2-(3-chlorophenyl)ethanamine hydrobromide-(RR,SS) diastereoisomer] was tested. Which inhibition in vivo at 0.5 µmol/kg ([1]; po, 2 h) did it give?
A: 30%

Q: And the inhibition in vivo at 1 µmol/kg ([1]; po, 2 h)?
A: 40%

Q: How did the inhibition in vivo at 1 µmol/kg ([1]; po, 2 h) turn out when `COc1ccc(C[C@H](C)NC[C@H](O)c2cccc(Cl)c2)cc1F` (relative stereo) [Example 15, N-[2-(3-Fluoro-4-methoxyphenyl)-1-methylethyl]-2-hydroxy-2-(3-chlorophenyl)ethanamine-(RS,SR) diastereoisomer] was run?
A: 19%

Q: `COc1ccc(C[C@H](C)NC[C@H](O)c2cccc(Cl)c2)cc1OC` (relative stereo) [Example 20, N-[2-(3,4-Dimethoxyphenyl)-1-methylethyl]-2-hydroxy-2-(3-chlorophenyl)ethanamine-(RS,SR) diastereoisomer] was tested. Which inhibition in vivo at 2.5 µmol/kg ([1]; po, 2 h) did it give?
A: 34%

Q: Which “% INHIBITION OF RESPONSE TO COLLAGEN” value ([2]; dose 600 μmol/kg po) does the source give for `CC(=O)Oc1ccccc1C(=O)O` [Aspirin, reference compound] here?
A: 33%

Q: With `CC(Cc1ccc(OCc2ccccc2)cc1)NCC(O)c1cccc(Cl)c1` (stereo not shown) [Example 1, N-[2-(4-Benzyloxyphenyl)-1-methylethyl]-2-hydroxy-2-(3-chlorophenyl)ethanamine] as the compound, how does the inhibition in vivo at 1 µmol/kg [1, 5] read?
A: 36%

Q: And the Emax [3, 6]?
A: 0%

Q: What about the Emax [3, 7] of the same compound?
A: 7%

Q: Which “% INHIBITION OF RESPONSE TO COLLAGEN” value ([2]; dose 5 μmol/kg po) does the source give for `CC(Cc1ccc(O)cc1)NCC(O)c1cccc(Cl)c1` (stereo not shown) [Example 2, N-[2-(4-Hydroxyphenyl)-1-methylethyl]-2-hydroxy-2-(3-chlorophenyl)ethanamine] here?
A: 40%

Q: And the inhibition in vivo at 1 µmol/kg ([1]; po, 2 h)?
A: 47%

Q: And the Emax [3, 8]?
A: 14%

Q: What about the Emax [3, 9] of the same compound?
A: 26%

Q: How did the inhibition in vivo at 1 µmol/kg ([1]; po, 2 h) turn out when `COc1ccc(CC(C)NCC(O)c2cccc(Cl)c2)cc1F` (stereo not shown) [Example 3, N-[2-(3-Fluoro-4-methoxyphenyl)-1-methylethyl]-2-hydroxy-2-(3-chlorophenyl)ethanamine] was run?
A: 46%

Q: And the Emax [3, 8]?
A: 0%

Q: What about the Emax [3, 9] of the same compound?
A: 36%

Q: With `COc1ccc(CC(C)NCC(O)c2cccc(Cl)c2)cc1` (stereo not shown) [Example 5, N-[2-(4-Methoxyphenyl)-1-methylethyl]-2-hydroxy-2-(3-chlorophenyl)ethanamine] as the compound, how does the “Topical anti-inflammatory ACTIVITY” value [4] read?
A: Active

Q: And the inhibition in vivo at 1 µmol/kg ([1]; po, 2 h)?
A: 49%

Q: With `COc1ccc(CC(C)NCC(O)c2cccc(F)c2)cc1` (stereo not shown) [Example 7, N-[2-(4-Methoxyphenyl)-1-methylethyl]-2-hydroxy-2-(3-fluorophenyl)ethanamine] as the compound, how does the inhibition in vivo at 5 µmol/kg ([1]; po, 2 h) read?
A: 32%

Q: Which inhibition in vivo at 1 µmol/kg ([1]; po, 2 h) does the source give for `COc1ccc(CC(C)NCC(O)c2cccc(Br)c2)cc1` (stereo not shown) [Example 8, N-[2-(4-Methoxyphenyl)-1-methylethyl]-2-hydroxy-2-(3-bromophenyl)ethanamine] here?
A: 30%

Q: For `COc1ccc(CC(C)NCC(O)c2cccc(Cl)c2F)cc1` (stereo not shown) [Example 9, N-[2-(4-Methoxyphenyl)-1-methylethyl]-2-hydroxy-2-(3-chloro-2-fluorophenyl)ethanamine], which inhibition in vivo at 1 µmol/kg ([1]; po, 2 h) is on record?
A: 40%

Q: What does the source list for `CC(CCc1ccc(O)cc1)NCC(O)c1cccc(Cl)c1` (stereo not shown) [Example 10, N-[3-(4-Hydroxyphenyl)-1-methylpropyl]-2-hydroxy-2-(3-chlorophenyl)ethanamine]?
A: % INHIBITION OF RESPONSE TO COLLAGEN ([2]; dose 5 μmol/kg po): 40%; inhibition in vivo at 1 µmol/kg [1, 5]: 47%

Q: Which inhibition in vivo at 0.2 µmol/kg ([1]; po, 2 h) does the source give for `CC(Cc1ccc(OC(C)C)cc1)NCC(O)c1cccc(Cl)c1` (stereo not shown) [Example 11, N-[2-(4-Isopropoxyphenyl)-1-methylethyl]-2-hydroxy-2-(3-chlorophenyl)ethanamine] here?
A: 12.5%

Q: Which inhibition in vivo at 0.5 µmol/kg ([1]; po, 2 h) does the source give for `CCCCCOc1ccc(CC(C)NCC(O)c2cccc(Cl)c2)cc1` (stereo not shown) [Example 12, N-[2-(4-^n Pentyloxyphenyl)-1-methylethyl]-2-hydroxy-2-(3-chlorophenyl)ethanamine] here?
A: 36%

Q: `CCCCCCCCCCOc1ccc(CC(C)NCC(O)c2cccc(Cl)c2)cc1` (stereo not shown) [Example 13, N-[2-(4-^n Decyloxyphenyl)-1-methylethyl]-2-hydroxy-2-(3-chlorophenyl)ethanamine] was tested. Which inhibition in vivo at 1 µmol/kg [1, 5] did it give?
A: 22%

Q: `COc1ccc(CCNCC(O)c2cccc(Cl)c2)cc1` (stereo not shown) [Example 14, N-[2-(4-Methoxyphenyl)ethyl]-2-hydroxy-2-(3-chlorophenyl)ethanamine] was tested. Which inhibition in vivo at 1 µmol/kg [1, 5] did it give?
A: 39%

Q: Which inhibition in vivo at 50 µmol/kg ([1]; dose 50 μ moles/kg po, 2 hour period after glucose 1 g/kg s.c.) does the source give for `COc1ccc(CCC(C)(C)NCC(O)c2cccc(Cl)c2)cc1` (stereo not shown) [Example 16, N-[3-(4-Methoxyphenyl)-1,1-dimethylpropyl]-2-hydroxy-2-(3-chlorophenyl)ethanamine] here?
A: 21%

Q: Which inhibition in vivo at 2.5 µmol/kg ([1]; po, 2 h) does the source give for `COc1ccc(C[C@@H](C)NCC(O)c2cccc(Cl)c2)cc1F` (stereo partly drawn) [Example 17, N-[2-(3-Fluoro-4-methoxyphenyl)-1-(R)-1-methylethyl]-2-(R,S)-2-hydroxy-2-(3-chlorophenyl)ethanamine hydrobromide] here?
A: 38%

Q: With `COc1ccc(CC(C)NCC(O)c2cccc(Cl)c2)cc1C` (stereo not shown) [Example 18, N-[2-(4-methoxy-3-methylphenyl)-1-methylethyl]-2-hydroxy-2-(3-chlorophenyl)ethanamine] as the compound, how does the inhibition in vivo at 2.5 µmol/kg ([1]; po, 2 h) read?
A: 58%

Q: Which inhibition in vivo at 2.5 µmol/kg ([1]; po, 2 h) does the source give for `COc1ccc(CC(C)NCC(O)c2cccc(Cl)c2)cc1OC` (stereo not shown) [Example 19, N-[2-(3,4-Dimethoxyphenyl)-1-methylethyl]-2-hydroxy-2-(3-chlorophenyl)ethanamine] here?
A: 21%

Q: With `CC(Cc1ccc(OC2CCCCC2)cc1)NCC(O)c1cccc(Cl)c1` (stereo not shown) [Example 21, N-[2-(4-Cyclohexyloxyphenyl)-1-methylethyl]-2-hydroxy-2-[3-chlorophenyl)ethanamine hydrochloride] as the compound, how does the inhibition in vivo at 2.5 µmol/kg ([1]; po, 2 h) read?
A: 53%

Q: How did the inhibition in vivo at 2.5 µmol/kg ([1]; dose 2.5 μ moles/kg po, 2 hour period after glucose 1 g/kg s.c.) turn out when `CC(Cc1ccc(OCCc2ccccc2)cc1)NCC(O)c1cccc(Cl)c1` (stereo not shown) [Example 22, N-[2-(4-{2-phenylethoxy}phenyl)-1-methylethyl]-2-hydroxy-2-(3-chlorophenyl)ethanamine] was run?
A: 13%

Q: `COc1cccc(CC(C)NCC(O)c2cccc(Cl)c2)c1` (stereo not shown) [Example 23, N-[2-(3-Methoxyphenyl)-1-methylethyl]-2-hydroxy-2-(3-chlorophenyl)ethanamine hydrochloride] was tested. Which inhibition in vivo at 2.5 µmol/kg ([1]; po, 2 h) did it give?
A: 22%

Q: For `COc1ccccc1CC(C)NCC(O)c1cccc(Cl)c1` (stereo not shown) [Example 24, N-[2-(2-Methoxyphenyl)-1-methylethyl]-2-hydroxy-2-(3-chlorophenyl)ethanamine], which inhibition in vivo at 5 µmol/kg ([1]; po, 2 h) is on record?
A: 27%

Q: Which Emax [3, 6] does the source give for `CC(C)(C)NCC(O)c1ccc(O)c(CO)c1` (stereo not shown) [Salbutamol, salbutamol, reference compound] here?
A: 100%

Q: And the Emax [3, 7]?
A: 100%
